{"source": "patent US4883649A", "about": "(The University of Michigan, priority 1988, dated 1989)", "key": {"[1]": {"tested_on": "heart", "settings": "in vivo; cited from earlier work"}, "[2]": {"tested_on": "α2-adrenergic receptor sites", "settings": "cited from earlier work"}, "[3]": {"tested_on": "α2-receptor sites", "settings": "central nervous system; cited from earlier work"}, "[4]": {"tested_on": "peripheral α-adrenergic receptors", "settings": "used as an antihypertensive; initial stimulation of peripheral α-adrenergic receptors; cited from earlier work"}, "[5]": {"tested_on": "bulbar sympathetic cardioaccelerator and sympathetic vasoconstrictor centers", "settings": "in vivo; cited from earlier work"}, "[6]": {"tested_on": "choroid of the eye", "settings": "rats; clonidine hydrochloride; cited from earlier work"}, "[7]": {"settings": "patient; cited from earlier work"}, "[8]": {"target": "T1, α2-adrenergic receptor (Homo sapiens, UniProt P08913)", "T1 sequence (P08913 1-465)": "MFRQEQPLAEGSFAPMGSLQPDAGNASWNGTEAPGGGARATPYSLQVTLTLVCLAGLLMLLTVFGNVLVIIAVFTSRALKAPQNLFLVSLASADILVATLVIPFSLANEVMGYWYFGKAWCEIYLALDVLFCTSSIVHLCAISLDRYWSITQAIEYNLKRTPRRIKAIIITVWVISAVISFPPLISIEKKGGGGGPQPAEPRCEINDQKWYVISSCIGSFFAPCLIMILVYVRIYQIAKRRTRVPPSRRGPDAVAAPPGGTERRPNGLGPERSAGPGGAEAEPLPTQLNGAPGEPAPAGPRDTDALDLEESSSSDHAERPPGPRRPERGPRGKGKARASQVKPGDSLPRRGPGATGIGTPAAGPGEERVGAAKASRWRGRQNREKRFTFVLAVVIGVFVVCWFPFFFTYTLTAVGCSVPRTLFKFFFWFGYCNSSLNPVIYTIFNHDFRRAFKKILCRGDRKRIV", "settings": "human platelet membranes, comparison with other drugs", "procedure": "(§1) Human platelet plasma membranes were prepared by sonication of human platelet concentrates (Red Cross) followed by centrifugation on a discontinuous sucrose gradient (14%/34% by weight) for 3 hours at 140,000 x g. The membrane fraction was collected from the interface of the heavy and light sucrose, and will be herein designated as purified platelet plasma membrane (PPM).\n(§2) Bound radioactivity was measured by scintillation counting of the GF/C filter in OCF scintillation cocktail (Amerscham) on a Beckman LR 8100 scintillation counter.\n(§3) IC50 is the concentration of compound which reduces binding to 50% of the initial value."}, "[9]": {"target": "T1, α2-adrenergic receptor", "assay": "biochemical", "procedure": "as §1, §2, §3"}}, "note": "Entries after “also recorded” stand apart in the source; their conditions may differ. Where a name gives a salt, the structure may show the parent alone. Read-outs that look alike come from different tables or passages of the source.", "data": [{"smiles": "Clc1cccc(Cl)c1N=C1NCCN1", "note": "[Clonidine, 2-(2,6-dichlorophenylamine)-2-imidazoline]", "values": [{"measurement": "tissue localization", "setting": "[1]", "value": "known to localize in the heart"}, {"measurement": "binding site specificity", "setting": "[2]", "value": "binds preferentially to α2 -adrenergic receptor sites"}, {"measurement": "response to activation of α2-receptor sites", "setting": "[3]", "value": "response similar to norepinephrine in the central nervous system"}, {"measurement": "initial vascular effect", "setting": "[4]", "value": "transient vasoconstriction"}, {"measurement": "sympathetic outflow from the brain", "setting": "[5]", "value": "decrease in sympathetic outflow from the brain"}]}, {"smiles": "Clc1cccc(Cl)c1N=C1NCCN1", "note": "[clonidine hydrochloride]", "values": [{"measurement": "buildup in the choroid of the eye", "setting": "[6]", "value": "significant buildup of clonidine occurs in the choroid of the eye"}, {"measurement": "retinal degeneration", "setting": "[6]", "value": "possibility of retinal degeneration"}, {"measurement": "route of excretion of drug and metabolites", "setting": "[7]", "value": "leave the patient primarily through urinary discharge"}]}, {"smiles": "Clc1cc(I)cc(Cl)c1N=C1NCCN1", "note": "[p-Iodoclonidine, 2-(2,6-dichloro-4-iodophenylimino-2)imidazolidine]", "values": [{"measurement": "relative affinity / potency in competition for α2-adrenergic receptor sites, in words", "setting": "[8]", "value": "greater affinity for the receptor than clonidine"}, {"measurement": "relative affinity / potency in competition for α2-adrenergic receptor sites, in words", "setting": "[8]; listed as p-iodoclonidine", "value": "more potent than either p-aminoclonidine or clonidine in competition for α2 -adrenergic receptor sites; also recorded: more potent (IC50 =1.3) than clonidine, p-aminoclonidine, or yohimbine; also recorded: binds better than epinephrine"}, {"measurement": "IC50", "setting": "[9]", "value": 1.3, "unit": "nM"}]}]}
